Tests used:
[1] = tested on: T0 rice plants with FMP37e; assay: Rice glasshouse trial, response to tembotrione; format: in vivo; settings: 100 g AI/ha, 7 DAT
Experimental: (§1) T0 rooted plantlets (either selected on phosphinothricin alone or on phosphinothricin supplemented with tembotrione) were transferred to soil in the glasshouse. Following an acclimation period, sufficiently grown plants were treated with the different HPPD inhibitor herbicides. As an example, T0 plants were sprayed with tembotrione of formulation type WP20 100 g Al/ha supplemented with ammonium sulfate and methyl ester raps oil. Seven days after the spray application, the symptoms due to the application of the herbicide were evaluated and compared the symptoms observed on wild type plants submitted to the same treatment.
(§2) The plants were classified in three categories based on the phenotype developed in response to the herbicide seven days after the treatment.

wild type rice plants = assay: Rice glasshouse trial, response to tembotrione; format: in vivo; settings: 100 g AI/ha, 7 DAT
Experimental: as §1, §2

[2] = target: T1, Arabidopsis thaliana HPPD (SEQ ID No. 10) (Arabidopsis thaliana, UniProt P93836); assay: Spectrophotometric HPPD activity assay in presence of HPPD inhibitors; format: biochemical
T1 construct: made in house; host or cells: E. coli K-12 BL21 (pQE30-AtHPPD)
T1 sequence (P93836 with tags, fused parts or gaps): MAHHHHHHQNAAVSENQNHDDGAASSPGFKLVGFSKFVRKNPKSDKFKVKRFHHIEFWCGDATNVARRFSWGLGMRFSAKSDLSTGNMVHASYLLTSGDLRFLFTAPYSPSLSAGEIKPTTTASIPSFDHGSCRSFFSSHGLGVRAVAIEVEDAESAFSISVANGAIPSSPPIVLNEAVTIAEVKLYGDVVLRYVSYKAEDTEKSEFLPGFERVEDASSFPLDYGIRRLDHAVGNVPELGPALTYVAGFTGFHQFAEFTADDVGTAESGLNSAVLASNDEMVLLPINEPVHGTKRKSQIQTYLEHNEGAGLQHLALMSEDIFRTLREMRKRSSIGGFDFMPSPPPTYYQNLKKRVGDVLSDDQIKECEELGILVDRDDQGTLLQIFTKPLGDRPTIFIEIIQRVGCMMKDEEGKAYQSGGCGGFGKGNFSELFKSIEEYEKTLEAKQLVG

[3] = tested on: T0 tobacco plants expressing the FMP37 HPPD (FMP37t); assay: Greenhouse response of T0 tobacco plants to tembotrione; format: in vivo, Nicotiana tabacum; settings: 100 g AI/ha, two weeks after treatment
Description: As an example, rooted plants containing the T-DNA PromCaMV35S-OTP-HIS6—FMP37t-TerCaMV35S, will be transferred to the greenhouse under standard growth conditions. Following a period of acclimation of two weeks, the T0 plants will be treated with a mixture containing 100 g tembotrione/ha prepared from a WP20 (wettable powder 20%) formulation supplemented with ammonium sulfate and methyl ester raps oil. Two weeks after the treatment, the symptoms due to the application of the herbicides will be evaluated. The plants are classified in four categories. The treated plants evaluated as “0” are looking like the untreated tobacco plants. The plants evaluated as “1” display temporary light bleaching phenotype due to the application of the herbicides. The plants evaluated as “2” display permanent light to strong bleaching symptoms. Finally the plants evaluated as “3” are looking like wild type tobacco plants submitted to the same treatment.

CS(=O)(=O)c1ccc(C(=O)C2C(=O)CCCC2=O)c(Cl)c1COCC(F)(F)F [Tembotrione, 2-[2-chloro-4-(methylsulfonyl)-3-[(2,2,2,-tri-fluoroethoxy)methyl]benzoyl]-1,3-cyclo-hexanedione]
number of plants in Class I (no injuries) [1]: 1 | number of plants in Class II (injury: 10-40%) [1]: 6 | number of plants in Class III (injury: 41-100%) [1]: 16 | number of plants in Class II (injury: 10-40%) (wild type rice plants): 0 | IC50 [2]: < 2.51 µM | % Inhibition ([2]; 1.0E−05 M): 97% | % Inhibition ([2]; 2.5E−04 M): 97% | % Inhibition ([2]; 2.5E−05 M): 93% | % Inhibition ([2]; 2.5E−06 M): 82% | % Inhibition ([2]; 5.0E−06 M): 90% | inhibition at 5 µM ([2]; 5.0 × 10^−6M inhibitor (Table 4), read-out: percentage of inhibition): 92% | % Inhibition ([2]; 6.3E−05 M): 97% | number of plants in category 0 (looking like the untreated tobacco plants) [3]: 6 | number of plants in category 2 (permanent light to strong bleaching) [3]: 13 | number of plants in category 3 (like treated wild type tobacco plants) [3]: 7
